Reference: US20250250284A1, “MACROCYCLE COMPOUNDS USEFUL AS KRAS INHIBITORS” (Hoffmann-La Roche Inc., priority 2022, published 2025)

Key:
[1] = tested on: NCI-H358 cells; experiment: Cell viability assay (Cell Counting Kit-8), KRAS G12C; type: cell-based; conditions: Homo sapiens, 72 hrs incubation, CCK-8
Description: (§1) The purpose of this cellular assay was to determine the effects of test compounds on the proliferation of human cancer cell lines NCI-H358 (ATCC-CRL5807) cells, AGS (ATCC-CRL-1739) cells, SW620 (ATCC-CCL-227) over a 3-day treatment period by quantifying the amount of NADPH present at endpoint using Cell Counting Kit-8.
(§2) Cells were seeded at 5,000 cells/well (NCI-H358), 2,000 cells/well (AGS) 2,000 cells/well (SW620) in 96-well assay plates (Corning-3699) and incubated overnight. On the day of the assay, diluted compounds were then added in a final concentration of 0.5% DMSO. After 72 hrs incubation, a tenth of the volume of cell counting kit 8 (Dnjindo-CK04) was added into each well. Read the signal (OD450 minus OD650) using EnVision after 2 hrs incubation. IC50 was determined by fitting a 4-parameter sigmoidal concentration response model.

[2] = tested on: AGS cells; experiment: Cell viability assay (Cell Counting Kit-8), KRAS G12D; type: cell-based; conditions: Homo sapiens, 72 hrs incubation, CCK-8
Description: as §1, §2

[3] = tested on: SW620 cells; experiment: Cell viability assay (Cell Counting Kit-8), KRAS G12V; type: cell-based; conditions: Homo sapiens, SW-620, 72 hrs incubation, CCK-8
Description: as §1, §2

[4] = target: KRAS G12C-BRAF complex (Homo sapiens (Human), UniProt P01116+P62937, G12C); experiment: KRAS-BRAF with CYPA (500 nM) interaction assay (TR-FRET), G12C; type: binding; conditions: GMPPNP loaded 6His-KRAS, GST-BRAF RBD, 3 hours
Description: (§3) KRAS-BRAF with CYPA (500 nM) Interaction Assay
(§4) In this example, TR-FRET was also used to measure the compound or compound-CYPA dependent disruption of the KRAS G12C-BRAF complex. This protocol was also used to measure disruption of KRAS G12D or KRAS G12V binding to BRAF by a compound of the invention, respectively. In assay buffer containing 25 mM HEPES PH=7.4 (4-(2-hydroxyethyl)-1-piperazineethanesulfonic acid, Thermo, 15630080), 0.002% Tween20, 0.1% BSA, 100 mM NaCl, 5 mM MgCl2, 10 μM GMPPNP (Guanosine 5′-[β,γ-imido]triphosphate trisodium salt hydrate, Sigma, G0635), tagless CYPA, GMPPNP loaded 6His-KRAS proteins, and GST-BRAF^RBD were mixed in a well of a 384-well assay plate at final concentrations of 50 nM, 6.25 nM and 1 nM, respectively. Compound was present in plate wells as a 16-point 3-fold dilution series starting at a final concentration of 10 μM and incubated for 3 hours. A mixture of MAb Anti-6His-XL665 (Cisbio, 61HISXLB) and Mab anti-GST-TB cryptate (Cisbio, 61GSTTLB) was then added at a final concentration of 6.67 nM and 0.21 nM, respectively, and the plate was incubated for an additional 1.5 hours. TR-FRET signal was read on a PHERstar FSX microplate reader (Ex320 nm, Em 665/615 nm). Compounds that facilitate disruption of the KRAS-BRAF complex were identified as those eliciting a decrease in the TR-FRET ratio relative to DMSO control wells.

[5] = target: KRAS G12D binding to BRAF (Homo sapiens (Human), UniProt P01116+P62937, G12D); experiment: KRAS-BRAF with CYPA (500 nM) interaction assay (TR-FRET), G12D; conditions: GMPPNP loaded 6His-KRAS, GST-BRAF RBD, 3 hours
Description: as §3, §4

[6] = target: KRAS G12V binding to BRAF (Homo sapiens (Human), UniProt P01116+P62937, G12V); experiment: KRAS-BRAF with CYPA (500 nM) interaction assay (TR-FRET), G12V; conditions: GMPPNP loaded 6His-KRAS, GST-BRAF RBD, 3 hours
Description: as §3, §4

[7] = tested on: phosphorylation of ERK, KRAS G12C in NCI-H358 cells; experiment: pERK inhibition assay, KRAS G12C; type: cell-based; conditions: Homo sapiens, 4 hours of incubation
Description: (§5) This assay is to measure the ability of test compounds in inhibiting the phosphorylation of ERK, the downstream signaling of KRAS G12C in NCI-H358 cells, KRAS G12D in AGS cells, and KRAS G12V in SW620. NCI-H358 (ATCC-CRL5807) cells, AGS (ATCC-CRL-1739) cells, SW620 (ATCC-CCL-227) cells were all grown and maintained using RPMI-1640 medium (Thermo Fisher Scientific) with 10% fetal bovine serum and 1% penicillin/streptomycin. On the day prior to compound addition, cells were plated in tissue culture-treated 96 well plates (Corning-3699) at a density of 30,000 cell/well, 20,000 cell/well, 30,000 cell/well for NCI-H358, AGS and SW620 respectively, and allowed for attachment overnight. Diluted compounds were then added in a final concentration of 0.5% DMSO. After 4 hours of incubation, the medium was removed, 100 μL of 4% formaldehyde was added, and the assay plates were incubated at room temperature for 20 minutes. The plates were then washed once with phosphate buffered saline (PBS), and permeabilized with 100 μL of chilled methanol for 10 minutes. Non-specific antibody binding to the plates was blocked using 50 μL 1×BSA blocking buffer (Thermo-37520, 10-fold dilution by Phosphate-Buffered Saline Tween (PBST) for at least 1 hour at room temperature.
(§6) The amount of phosphor-ERK was determined using an antibody specific for phosphorylated form of ERK. Primary antibody (pERK, CST-4370, Cell Signaling Technology) was diluted 1:300 in blocking buffer, with 50 μL aliquoted to each well, and incubated overnight at 4° C. Cells was washed five times for 5 minutes with PBST. Secondary antibody (HRP-linked anti-rabbit IgG, CST-7074, Cell Signaling Technology) was diluted 1:1000 in blocking buffer, and 50 μL was added to each well and incubated 1-2 hrs at room temperature. Cells was washed 5 times for 5 minutes with PBST, 100 μL TMB ELISA substrate (abcam-ab171523) were added and gently shake for 20 minutes. 50 μL stop solution (abcam-ab171529) were added, and then read the signal (OD450) by EnVision.
(§7) IC50 was determined by fitting a 4-parameter sigmoidal concentration response model.

[8] = tested on: phosphorylation of ERK, KRAS G12D in AGS cells; experiment: pERK inhibition assay, KRAS G12D; type: cell-based; conditions: Homo sapiens, 4 hours of incubation
Description: as §5, §6, §7

[9] = tested on: phosphorylation of ERK, KRAS G12V in SW620; experiment: pERK inhibition assay, KRAS G12V; type: cell-based; conditions: Homo sapiens, SW-620; SW620 cells, 4 hours of incubation
Description: as §5, §6, §7

Chain of KRAS G12V binding to BRAF (P01116-2 other isoform, or with tags, fused parts or gaps G12V): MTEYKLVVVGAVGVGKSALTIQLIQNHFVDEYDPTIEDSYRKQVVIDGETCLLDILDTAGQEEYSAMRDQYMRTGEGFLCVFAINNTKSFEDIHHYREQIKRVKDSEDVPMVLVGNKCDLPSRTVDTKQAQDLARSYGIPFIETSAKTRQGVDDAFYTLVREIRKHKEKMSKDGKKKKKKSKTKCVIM
Chain of KRAS G12V binding to BRAF (P62937 whole entry): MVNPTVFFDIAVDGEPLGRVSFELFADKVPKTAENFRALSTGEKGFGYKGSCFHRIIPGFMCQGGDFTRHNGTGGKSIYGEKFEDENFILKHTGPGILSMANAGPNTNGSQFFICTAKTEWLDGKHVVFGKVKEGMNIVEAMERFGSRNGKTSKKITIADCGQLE
Chain of KRAS G12C-BRAF complex (P01116-2 other isoform, or with tags, fused parts or gaps G12C): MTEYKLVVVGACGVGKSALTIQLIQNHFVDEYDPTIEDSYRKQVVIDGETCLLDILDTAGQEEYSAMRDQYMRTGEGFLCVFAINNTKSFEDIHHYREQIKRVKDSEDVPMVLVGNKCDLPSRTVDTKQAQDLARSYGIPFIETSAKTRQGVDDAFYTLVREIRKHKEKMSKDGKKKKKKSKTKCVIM
Chain of KRAS G12C-BRAF complex (P62937 whole entry): as the sequence (P62937 whole entry) above
Chain of KRAS G12D binding to BRAF (P01116-2 other isoform, or with tags, fused parts or gaps G12D): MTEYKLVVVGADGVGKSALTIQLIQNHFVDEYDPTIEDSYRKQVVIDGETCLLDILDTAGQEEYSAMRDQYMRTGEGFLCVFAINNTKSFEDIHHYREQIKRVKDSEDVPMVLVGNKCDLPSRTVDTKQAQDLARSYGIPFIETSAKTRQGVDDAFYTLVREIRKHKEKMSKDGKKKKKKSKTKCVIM
Chain of KRAS G12D binding to BRAF (P62937 whole entry): as the sequence (P62937 whole entry) above

| SMILES | IC50 [1] [µM] | IC50 [2] [µM] | IC50 [3] [µM] | IC50 [4] [µM] | IC50 [5] [µM] | IC50 [6] [µM] | IC50 [7] [µM] | IC50 [8] [µM] | IC50 [9] [µM] |
| --- | --- | --- | --- | --- | --- | --- | --- | --- | --- |
| CO[C@@H](C)c1ncc(N2CCN(C)CC2)cc1-c1c2c3c(F)c(ccc3n1CC(F)(F)F)-c1csc(n1)C[C@H](NC(=O)[C@H]1C[C@@H]1C)C(=O)N1CCC[C@H](N1)C(=O)OCC(C)(C)C2 (atropisomer, axis not shown; (M)) [Example 10, (1S,2S)—N-[(7S,13S)-25-fluoro-(20M)-20-[2-[(1S)-1-methoxyethyl]-5-(4-methylpiperazin-1-yl)-3-pyridyl]-17,17-dimethyl-8,14-dioxo-21-(2,2,2-trifluoroethyl)-15-oxa-4-thia-9,21,27,28-tetrazapentacyclo[17.5.2.1^2,5.1^9,13.0^22,26]octacosa-1(25),2,5(28),19,22(26),23-hexaen-7-yl]-2-methyl-cyclopropanecarboxamide] | 0.012 | 0.013 | 0.003 | 0.009 | 0.02 | 0.013 | 0.017 | 0.011 | 0.002 |
| CCn1c(-c2cc(N3CCN(C)CC3)cnc2[C@H](C)OC)c2c3cc(c(F)cc31)-c1csc(n1)C[C@H](NC(=O)[C@H]1[C@@H]3COC[C@@H]31)C(=O)N1CCC[C@H](N1)C(=O)OCC(C)(C)C2 (atropisomer, axis not shown; (M)) [Example 2, (1R,5S)—N-[(7S,13S)-21-ethyl-24-fluoro-(20M)-20-[2-[(1S)-1-methoxyethyl]-5-(4-methylpiperazin-1-yl)-3-pyridyl]-17,17-dimethyl-8,14-dioxo-15-oxa-4-thia-9,21,27,28-tetrazapentacyclo[17.5.2.1^2,5.1^9,13.0^22,26]octacosa-1(25),2,5(28),19,22(26),23-hexaen-7-yl]-3-oxabicyclo[3.1.0]hexane-6-carboxamide] | 0.011 | 0.059 | 0.005 | 0.134 | 0.957 | 0.174 | 0.009 | 0.018 | 0.003 |
| CO[C@@H](C)c1ncc(N2CCN(C)CC2)cc1C1=C2CC(C)(C)COC(=O)[C@@H]3CCCN(N3)C(=O)[C@@H](NC(=O)[C@H]3C[C@@H]3C)Cc3nc(cs3)-c3ccc(c2c3)C1 (single isomer, unassigned) [Example A122, reference compound] | < 0.001 | 0.001 | < 0.001 | 0.013 | 0.124 | 0.025 | 0.002 | 0.001 | < 0.001 |
